# From patent publication US20260308159A1, “BICYCLIC HETEROARYLAMIDES HAVING GPR68 MODULATING ACTIVITY” (RECURSION PHARMACEUTICALS, INC., priority 2023, published 2026)
# Target: T1, human GPR68 (Homo sapiens, UniProt Q15743)
# T1 construct: encoding full-length human GPR68 (uniprot ID: Q15743); expressed in transfected cells; host or cells: HEK293T
# Assay: GPR68 Biochemical Assay (Promega GloSensor cAMP assay, GPR68 antagonism)
# Type: cell-based
# Details: HEK293T cells transiently expressing hGPR68, antagonism of pH 5.5 stimulated cAMP, 15 min, read-out: hGPR68 IC50
# In short: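 HEK293T cells transiently co-transfected with full-length human GPR68 and GloSensor plasmids, preloaded 60 min with GloSensor substrate in pH 8.0 buffer. Compounds (9-point half-log series, top 50 μM final, 0.5% DMSO) added with pH 5.5 buffer (~EC80-90 stimulation); luminescence read after 15 min at room temperature. IC50 from sigmoidal fit of % inhibition.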
# T1 sequence (Q15743 whole entry): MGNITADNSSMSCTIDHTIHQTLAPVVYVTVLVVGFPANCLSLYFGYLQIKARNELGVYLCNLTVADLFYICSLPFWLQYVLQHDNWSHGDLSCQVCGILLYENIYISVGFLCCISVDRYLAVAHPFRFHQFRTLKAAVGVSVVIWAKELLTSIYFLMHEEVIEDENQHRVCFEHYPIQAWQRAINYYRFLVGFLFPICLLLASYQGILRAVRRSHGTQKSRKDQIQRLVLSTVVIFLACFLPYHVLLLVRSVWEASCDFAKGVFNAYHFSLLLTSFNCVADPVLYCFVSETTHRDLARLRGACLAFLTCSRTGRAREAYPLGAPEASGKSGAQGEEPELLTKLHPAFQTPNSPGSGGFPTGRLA
row,IC50 [nM],SMILES
1,50 to 500,"COCc1nn2c(C(=O)NC3(C)CCc4ccccc43)ccnc2c1C(N)=O (centres unmarked) [Compound 155, 2-(methoxymethyl)-N7-(1-methylindan-1-yl)pyrazolo[1,5-a]pyrimidine-3,7-dicarboxamide]"
2,< 50,"COCc1nn2c(C(=O)NC3COc4ccccc43)ccnc2c1C(N)=O (centres unmarked) [Compound 75, N7-(2,3-dihydrobenzofuran-3-yl)-2-(methoxymethyl)pyrazolo[1,5-a]pyrimidine-3,7-dicarboxamide]"
3,< 50,"NC(=O)c1c(C2CC2)nc2c(C(=O)NC3CS(=O)(=O)c4ccccc43)ccnn12 (centres unmarked) [Compound 222, 2-cyclopropyl-N8-(1,1-dioxo-2,3-dihydrobenzothiophen-3-yl) imidazo[1,2-b]pyridazine-3,8-dicarboxamide]"
4,< 50,"COCc1nn2c(C(=O)NC3CCC(F)(F)CC3)cc(C)nc2c1C(N)=O [Compound 240, N7-(4,4-difluorocyclohexyl)-2-(methoxymethyl)-5-methyl-pyrazolo[1,5-a]pyrimidine-3,7-dicarboxamide]"
5,< 50,"NC(=O)c1c(C2CC2)nn2c(C(=O)NC3CC(F)(F)c4ccccc43)ccnc12 (centres unmarked) [Compound 112, 2-cyclopropyl-N7-(3,3-difluoroindan-1-yl)pyrazolo[1,5-a]pyrimidine-3,7-dicarboxamide]"
6,50 to 500,"NC(=O)c1c(C2CCCO2)nn2c(C(=O)N[C@H]3C[C@@H](OC(F)(F)F)C3)ccnc12 (stereo partly drawn) [Compound 203, 2-tetrahydrofuran-2-yl-N7-[cis-3-(trifluoromethoxy)cyclobutyl]pyrazolo[1,5-a]pyrimidine-3,7-dicarboxamide]"
7,< 50,"COCc1nn2c(C(=O)NC3Cc4ccccc4C3)ccnc2c1C(N)=O [Compound 57, N7-indan-2-yl-2-(methoxymethyl)pyrazolo[1,5-a]pyrimidine-3,7-dicarboxamide]"
8,500 to 5000,"COCc1nn2c(C(=O)N[C@H]3CC[C@@H](C)CC3)ccnc2c1C(N)=O [Compound 84, 2-(methoxymethyl)-N7-(cis-4-methylcyclohexyl)pyrazolo[1,5-a]pyrimidine-3,7-dicarboxamide]"
9,< 50,"COCc1nn2c(C(=O)NC3Cc4cc(F)cc(F)c4C3)ccnc2c1C(N)=O (centres unmarked) [Compound 92, N7-(4,6-difluoroindan-2-yl)-2-(methoxymethyl)pyrazolo[1,5-a]pyrimidine-3,7-dicarboxamide]"
10,< 50,"NC(=O)c1c(COCF)nn2c(C(=O)N[C@H]3C[C@@H](OC(F)(F)F)C3)ccnc12 [Compound 158, 2-(fluoromethoxymethyl)-N7-[cis-3-(trifluoromethoxy)cyclobutyl]pyrazolo[1,5-a]pyrimidine-3,7-dicarboxamide]"
11,500 to 5000,"Cc1nn2c(C(=O)NC3COc4ccccc4C3)ccnc2c1C(N)=O (centres unmarked) [Compound 47, N7-chroman-3-yl-2-methyl-pyrazolo[1,5-a]pyrimidine-3,7-dicarboxamide]"
12,500 to 5000,"NC(=O)c1cnn2c(C(=O)NC3Cc4cccc(CCC(F)(F)F)c4C3)ccnc12 (centres unmarked) [Compound 14, N7-[4-(3,3,3-trifluoropropyl)indan-2-yl]pyrazolo[1,5-a]pyrimidine-3,7-dicarboxamide]"
13,< 50,"COCc1nn2c(C(=O)N[C@H]3CCCc4ccccc43)ccnc2c1C(N)=O [Compound 193, 2-(methoxymethyl)-N7-[(1S)-tetralin-1-yl]pyrazolo[1,5-a]pyrimidine-3,7-dicarboxamide]"
14,50000 to 100000,"CNC(=O)c1c(-c2ccccc2)nn2c(C(=O)NC3Cc4ccccc4C3)cccc12 [Compound 40, N7-indan-2-yl-N3-methyl-2-phenyl-pyrazolo[1,5-a]pyridine-3,7-dicarboxamide]"
15,< 50,"COCc1nn2c(C(=O)N[C@@H]3CCCc4ccccc43)ccnc2c1C(N)=O [Compound 74, 2-(methoxymethyl)-N7-[(1R)-tetralin-1-yl]pyrazolo[1,5-a]pyrimidine-3,7-dicarboxamide]"
16,< 50,"COCc1nn2c(C(=O)Nc3cnc4c(F)cccc4c3)ccnc2c1C(N)=O [Compound 117, N7-(8-fluoro-3-quinolyl)-2-(methoxymethyl)pyrazolo[1,5-a]pyrimidine-3,7-dicarboxamide]"
17,< 50,"COCc1nn2c(C(=O)NC3CC(F)(F)c4ccccc43)cc(C)nc2c1C(N)=O (centres unmarked) [Compound 232, N7-(3,3-difluoroindan-1-yl)-2-(methoxymethyl)-5-methyl-pyrazolo[1,5-a]pyrimidine-3,7-dicarboxamide]"
18,< 50,"COCc1nn2c(C(=S)NC3Cc4ccccc4C3)ccnc2c1C(N)=O [Compound 148, 7-(indan-2-ylcarbamothioyl)-2-(methoxymethyl)pyrazolo[1,5-a]pyrimidine-3-carboxamide]"
19,5000 to 50000,"CO[C@H]1C[C@@H](NC(=O)c2ccnc3c(C(N)=O)cnn23)C1 [Compound 11, N7-(cis-3-methoxycyclobutyl)pyrazolo[1,5-a]pyrimidine-3,7-dicarboxamide]"
20,< 50,COCc1nn2c(C(=O)N[C@@H]3Cc4ccccc4[C@@H]3C)ccnc2c1C(N)=O [Compound 201]
21,50 to 500,"COCc1nn2c(C(=O)N[C@H]3C[C@H](OC(F)(F)F)C3)ccnc2c1C(N)=O [Compound 224, 2-(methoxymethyl)-N7-[trans-3-(trifluoromethoxy)cyclobutyl]pyrazolo[1,5-a]pyrimidine-3,7-dicarboxamide]"
22,< 50,"COCc1nc2c(C(=O)NC3CC(F)(F)C3)ccnn2c1C(N)=O [Compound 54, N8-(3,3-difluorocyclobutyl)-2-(methoxymethyl)imidazo[1,2-b]pyridazine-3,8-dicarboxamide]"
23,50 to 500,"NC(=O)c1cnn2c(C(=O)NC3COc4ccccc4C3)ccnc12 (centres unmarked) [Compound 6, N7-chroman-3-ylpyrazolo[1,5-a]pyrimidine-3,7-dicarboxamide]"
24,500 to 5000,"NC(=O)c1cnn2c(C(=O)N[C@H]3C[C@@H](OC(F)(F)F)C3)ccnc12 [Compound 18, N7-[cis-3-(trifluoromethoxy)cyclobutyl]pyrazolo[1,5-a]pyrimidine-3,7-dicarboxamide]"
25,< 50,"COCc1nc2c(C(=O)N[C@@H]3CCS(=O)(=O)c4ccccc43)ccnn2c1C(N)=O [Compound 219, 2-(methoxymethyl)-N8-[(4R)-1,1-dioxo-3,4-dihydro-2H-thiochromen-4-yl]imidazo[1,2-b]pyridazine-3,8-dicarboxamide]"
26,< 50,"NC(=O)c1c(C2CC2)nc2c(C(=O)NC3CCC(F)(F)CC3)ccnn12 [Compound 150, 2-cyclopropyl-N8-(4,4-difluorocyclohexyl)imidazo[1,2-b]pyridazine-3,8-dicarboxamide]"
27,50 to 500,"CS(=O)(=O)Cc1nn2c(C(=O)NC3Cc4ccccc4C3)ccnc2c1C(N)=O [Compound 215, N7-indan-2-yl-2-(methylsulfonylmethyl)pyrazolo[1,5-a]pyrimidine-3,7-dicarboxamide]"
28,< 50,"COCc1nn2c(C(=O)NCc3ccc(C)cc3)ccnc2c1C(N)=O [Compound 72, 2-(methoxymethyl)-N7-(p-tolylmethyl)pyrazolo[1,5-a]pyrimidine-3,7-dicarboxamide]"
29,500 to 5000,"COCc1nn2c(C(=O)NC3CCc4cncn4C3)ccnc2c1C(N)=O (centres unmarked) [Compound 188, 2-(methoxymethyl)-N7-(5,6,7,8-tetrahydroimidazo[1,5-a]pyridin-6-yl)pyrazolo[1,5-a]pyrimidine-3,7-dicarboxamide]"
